# Experimental data from ChEMBL document CHEMBL1145378 (J Med Chem, 2007).
# Tests used:
# [1] = target: Voltage-gated inwardly rectifying potassium channel KCNH2 (Homo sapiens, UniProt Q12809)
# [2] = Permeability from basolateral to apical side of the Caco-2 cell membrane; type: ADME, cell-based; conditions: human
# [3] = Permeability from apical to basolateral side of the Caco-2 cell membrane; type: ADME, cell-based; conditions: human
# hERG (KCNH2) = hERG (KCNH2) (Homo sapiens, UniProt Q12809); experiment: in vitro; conditions: HEK293 cells that express hERG
# Sequence of hERG (KCNH2) (Q12809 whole entry): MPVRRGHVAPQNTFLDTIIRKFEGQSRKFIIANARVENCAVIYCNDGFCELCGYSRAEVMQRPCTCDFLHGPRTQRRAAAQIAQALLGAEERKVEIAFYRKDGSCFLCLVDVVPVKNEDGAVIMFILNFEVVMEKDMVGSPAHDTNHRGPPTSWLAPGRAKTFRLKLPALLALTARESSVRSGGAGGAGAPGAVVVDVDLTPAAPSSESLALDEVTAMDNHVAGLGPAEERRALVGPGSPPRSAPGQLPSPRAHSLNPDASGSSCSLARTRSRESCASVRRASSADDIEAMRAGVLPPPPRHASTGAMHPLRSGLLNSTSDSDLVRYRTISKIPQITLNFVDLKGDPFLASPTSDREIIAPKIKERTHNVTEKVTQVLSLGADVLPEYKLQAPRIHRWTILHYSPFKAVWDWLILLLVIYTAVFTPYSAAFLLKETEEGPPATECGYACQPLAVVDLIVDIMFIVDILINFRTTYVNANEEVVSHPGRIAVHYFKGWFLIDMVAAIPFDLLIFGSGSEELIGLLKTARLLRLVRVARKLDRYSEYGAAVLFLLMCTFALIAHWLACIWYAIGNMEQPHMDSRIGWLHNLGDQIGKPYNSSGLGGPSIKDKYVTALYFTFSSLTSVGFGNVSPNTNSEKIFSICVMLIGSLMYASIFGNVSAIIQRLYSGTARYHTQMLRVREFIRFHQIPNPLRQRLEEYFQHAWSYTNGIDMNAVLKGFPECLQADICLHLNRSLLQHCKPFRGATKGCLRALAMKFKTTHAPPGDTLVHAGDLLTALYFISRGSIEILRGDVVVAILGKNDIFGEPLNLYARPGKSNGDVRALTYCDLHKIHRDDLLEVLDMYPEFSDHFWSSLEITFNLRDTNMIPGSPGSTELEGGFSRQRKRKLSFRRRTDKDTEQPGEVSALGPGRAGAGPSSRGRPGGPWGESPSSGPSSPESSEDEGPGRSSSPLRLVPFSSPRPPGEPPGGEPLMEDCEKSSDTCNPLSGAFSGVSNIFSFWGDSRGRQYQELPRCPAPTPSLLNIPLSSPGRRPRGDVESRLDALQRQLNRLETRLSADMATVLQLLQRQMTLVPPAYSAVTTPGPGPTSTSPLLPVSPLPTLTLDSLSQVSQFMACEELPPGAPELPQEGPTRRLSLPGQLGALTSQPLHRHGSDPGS
# Sequence of Voltage-gated inwardly rectifying potassium channel KCNH2 (Q12809 whole entry): as above
Compound,Ki [1],also measured
CC1(C)C2=C3C=C4C5=[N+](CCC4OC3CCN2c2ccc(CCCCCC(=O)NCCCCCCN(CCOc3ccc(NS(C)(=O)=O)cc3)CCc3ccc(NS(C)(=O)=O)cc3)cc21)c1ccc(S(=O)(=O)[O-])cc1C5(C)C (configuration not stated),10 nM,–
CC1(C)C2=C3C=C4C5=[N+](CCC4OC3CCN2c2ccc(CC(=O)NCCCCCN(CCOc3ccc(NS(C)(=O)=O)cc3)CCc3ccc(NS(C)(=O)=O)cc3)cc21)c1ccc(S(=O)(=O)[O-])cc1C5(C)C (configuration not stated),13 nM,–
CS(=O)(=O)Nc1ccc(CCN(CCOc2ccc(NS(C)(=O)=O)cc2)c2ccc([N+](=O)[O-])c3nonc23)cc1,–,Papp B→A [2]: 18 ×10⁻⁶ cm/s; Papp A→B [3]: 3.7 ×10⁻⁶ cm/s
CC1(C)C2=C3C=C4C5=[N+](CCC4OC3CCN2c2ccc(CC(=O)NCCCN(CCOc3ccc(NS(C)(=O)=O)cc3)CCc3ccc(NS(C)(=O)=O)cc3)cc21)c1ccc(S(=O)(=O)[O-])cc1C5(C)C (configuration not stated),160 nM,–
CCNC(=O)Cc1ccc2c(c1)C(C)(C)C1C3C=C4C5=[N+](CCC4OC3CCN21)c1ccc(S(=O)(=O)[O-])cc1C5(C)C (configuration not stated),> 1000 nM,–
CC1(C)C2=C3C=C4C5=[N+](CCC4OC3CCN2c2ccc(CC(=O)NCCN(CCOc3ccc(NS(C)(=O)=O)cc3)CCc3ccc(NS(C)(=O)=O)cc3)cc21)c1ccc(S(=O)(=O)[O-])cc1C5(C)C (configuration not stated),7300 nM,–
CN(C)c1ccc2c(c1)Oc1cc(N(C)C)ccc1C21OC(=O)c2cc(C(=O)NCCCCCCN(CCOc3ccc(NS(C)(=O)=O)cc3)CCc3ccc(NS(C)(=O)=O)cc3)ccc21,89 nM,–
CN(C)c1ccc2c(c1)Oc1cc(N(C)C)ccc1C21OC(=O)c2cc(C(=O)N(CCOc3ccc(NS(C)(=O)=O)cc3)CCc3ccc(NS(C)(=O)=O)cc3)ccc21,> 1000 nM,–
CS(=O)(=O)Nc1ccc(CCN(CCCCCCNC(=O)c2ccc3c(c2)C(=O)OC32c3ccc(O)cc3Oc3cc(O)ccc32)CCOc2ccc(NS(C)(=O)=O)cc2)cc1,15 nM,–
CS(=O)(=O)Nc1ccc(CCN(CCOc2ccc(NS(C)(=O)=O)cc2)C(=O)c2ccc3c(c2)C(=O)OC32c3ccc(O)cc3Oc3cc(O)ccc32)cc1,980 nM,–
CCN1CCCc2cc3c(cc21)OC1=CC2=[N+](CCCC(=O)N(CCOc4ccc(NS(C)(=O)=O)cc4)CCc4ccc(NS(C)(=O)=O)cc4)CCCC2=CC1N3 (configuration not stated),3.6 nM,–
CC1(C)C2=C3C=C4C5=[N+](CCC4OC3CCN2c2ccc(CC(=O)NCCCCN(CCOc3ccc(NS(C)(=O)=O)cc3)CCc3ccc(NS(C)(=O)=O)cc3)cc21)c1ccc(S(=O)(=O)[O-])cc1C5(C)C (configuration not stated),18 nM,–
CC1(C)C2=C3C=C4C5=[N+](CCC4OC3CCN2c2ccc(CCC(=O)NCCCCCCN(CCOc3ccc(NS(C)(=O)=O)cc3)CCc3ccc(NS(C)(=O)=O)cc3)cc21)c1ccc(S(=O)(=O)[O-])cc1C5(C)C (configuration not stated),19 nM,–
CN(CCOc1ccc(NS(C)(=O)=O)cc1)CCc1ccc(NS(C)(=O)=O)cc1 [DOFETILIDE],–,Papp B→A [2]: 14.3 ×10⁻⁶ cm/s; Papp A→B [3]: 15.7 ×10⁻⁶ cm/s; inhibition at 0.025 µM (hERG (KCNH2)): 80%
